Patent publication US20090048112A1, “Novel Herbicides” (SYNGENTA LIMITED, priority 2005, published 2009)

What was measured:
Format in all cases: in vivo
[1] = test system: Amaranthus retroflexus (redroot pigweed); experiment: Example B2: herbicidal action post emergence, 500 g/ha; conditions: applied to the foliage, 13 days after application, 0 is no damage to plants, 100 is plants completely dead
Procedure: (§1) Monocotyledonous and dicotyledonous test plants were sown in seed trays in standard compost and were grown for eight days. The trays were watered twice daily or as required. The chemicals were applied by track sprayer to the foliage. The application was carried out with an aqueous suspension of the test substances, prepared as a formulation of 50% acetone in water with 0.5% Tween 20™ (CAS RN 9005-64-5), to achieve a field equivalent of 1000 l/ha. The application rate of the test substances was 500 g/ha. A visual assessment of the herbicidal effect was made at 13 days after application. The following percentage scale was used for assessment: 0, 5, 10, 20, 30, 40, 50, 60, 70, 80, 90, 95, 100 (where O is no damage to plants and 100 is plants are completely dead).

[2] = test system: Alopecurus myosuroides (slender foxtail); experiment: as above; conditions: applied to the foliage, 13 days after application, 0 is no damage to plants, 100 is plants completely dead
Procedure: as §1

[3] = test system: Echinochloa crus-galli (barnyard grass); experiment: as above; conditions: applied to the foliage, 13 days after application, 0 is no damage to plants, 100 is plants completely dead
Procedure: as §1

[4] = test system: Stellaria media (chickweed); experiment: as above; conditions: applied to the foliage, 13 days after application, 0 is no damage to plants, 100 is plants completely dead
Procedure: as §1

[5] = test system: Monocotyledonous and dicotyledonous test plants; experiment: Example B1: herbicidal action prior to emergence (pre-emergence), 500 g/ha; conditions: 13 days after application, 0 = no damage, 100 = plants completely dead; for ALOMY herbicidal effect (visual assessment, percentage scale): Alopecurus myosuroides (slender foxtail); for AMARE herbicidal effect (visual assessment, percentage scale): Amaranthus retroflexus (redroot pigweed); for ECHCG herbicidal effect (visual assessment, percentage scale): Echinochloa crus-galli (barnyard grass); for STEME herbicidal effect (visual assessment, percentage scale): Stellaria media (chickweed)
Procedure: as §1, with “standard compost.” for “standard compost and were grown for eight days.”, “sprayer at” for “sprayer to”, “the soil surface.” for “the foliage.”, “(where 0” for “(where O”

[6] = test system: Monocotyledonous and dicotyledonous test plants; experiment: Example B3: herbicidal action prior to emergence (pre-emergence), 96-cell seed trays, 1000 g/ha; parameters: key: 0 is no damage to plant; 5 is total damage to plant; conditions: 9 days after application; for AGSTE herbicidal effect (visual assessment, scale 0-5): Agrostis tenius (Colonial bentgrass); for AMARE herbicidal effect (visual assessment, scale 0-5): Amaranthus retroflexus (redroot pigweed); for DIGSA herbicidal effect (visual assessment, scale 0-5): Digitaria sanguinalis (hairy finger-grass); for POATR herbicidal effect (visual assessment, scale 0-5): Poa trivialis (rough blue grass); for SETIT herbicidal effect (visual assessment, scale 0-5): Setaria italica (foxtail millet)
Procedure: Monocotyledonous and dicotyledonous test plants were sown in sterilised standard soil in seed trays each with 96 cells. The seed trays were stored under controlled conditions in a climatic chamber for one day (cultivation at 23° C. during the day and 17° C. at night; 13 hours of light; 50-60% humidity). The chemicals were applied to the soil surface. The application was carried out with an aqueous suspension of the test substances, prepared as a formulation in water with 10% dimethyl sulfoxide (CAS RN 67-68-5), to achieve a field equivalent of 1000 l/ha. The application rate of the test substances was 1000 g/ha. The plants were grown on in the climatic chamber for 9 days (cultivation at 24° C. during the day and 19° C. at night; 13 hours of light; 50-60% humidity). A visual assessment of the herbicidal effect was made at 9 days after application. The following scale was used for assessment: 0, 1, 2, 3, 4 and 5 (where 0 is no damage to plant and 5 is total damage to plant).

Row | Compound | AMARE, visual assessment of the herbicidal effect [1] [%] | ALOMY, visual assessment of the herbicidal effect [2] [%] | ECHCG, visual assessment of the herbicidal effect [3] [%] | STEME, visual assessment of the herbicidal effect [4] [%] | ALOMY herbicidal effect (visual assessment, percentage scale) [5] [%] | AMARE herbicidal effect (visual assessment, percentage scale) [5] [%] | ECHCG herbicidal effect (visual assessment, percentage scale) [5] [%] | STEME herbicidal effect (visual assessment, percentage scale) [5] [%] | AGSTE herbicidal effect (visual assessment, scale 0-5) [6] | AMARE herbicidal effect (visual assessment, scale 0-5) [6] | DIGSA herbicidal effect (visual assessment, scale 0-5) [6] | POATR herbicidal effect (visual assessment, scale 0-5) [6] | SETIT herbicidal effect (visual assessment, scale 0-5) [6]
1 | Cn1nc(C(F)(F)F)c(C[S+]([O-])c2ncc(Br)s2)c1Cl (racemic) [1.005] | 80 | 80 | 80 | 70 | 95 | 100 | 95 | 60 |  |  |  |  | 
2 | Cn1nc(C(F)(F)F)c(C[S+]([O-])c2ncc(Cl)s2)c1OCC(F)(F)F (racemic) [1.014] | 70 | 70 | 60 | 80 | 100 | 100 | 95 | 95 |  |  |  |  | 
3 | Cn1nc(C(F)(F)F)c(C[S+]([O-])c2ncc(Cl)s2)c1Cl (racemic) [1.017] | 70 | 70 | 60 | 70 | 95 | 95 | 95 | 95 |  |  |  |  | 
4 | CCOc1c(C[S+]([O-])c2ncc(Br)s2)c(C(F)(F)F)nn1C (racemic) [1.022] | 70 | 60 | 80 | 80 | 95 | 100 | 95 | 90 |  |  |  |  | 
5 | Cn1nc(C(F)(F)F)c(C[S+]([O-])c2ncc(Br)s2)c1OCC(F)F (racemic) [1.025] | 80 | 70 | 80 | 90 | 95 | 100 | 95 | 90 |  |  |  |  | 
6 | COCCOc1c(C[S+]([O-])c2ncc(Cl)s2)c(C(F)(F)F)nn1C (racemic) [1.051] | 70 | 70 | 80 | 70 | 80 | 100 | 70 | 100 |  |  |  |  | 
7 | Cn1nc(C(F)(F)F)c(C[S+]([O-])c2ncc(Cl)s2)c1OC(F)F (racemic) [1.057] | 100 | 90 | 80 | 90 | 90 | 95 | 95 | 80 |  |  |  |  | 
8 | Cc1cnc([S+]([O-])Cc2c(C(F)(F)F)nn(C)c2OCC(F)(F)F)s1 (racemic) [Compound 1.074] |  |  |  |  | 70 | 95 | 0 | 80 | 5 | 3 | 5 | 5 | 4
9 | CCOc1c(CS(=O)(=O)c2ncc(Br)s2)c(C(F)(F)F)nn1C [1.023] | 80 | 70 | 80 | 20 | 50 | 100 | 90 | 30 |  |  |  |  | 
10 | Cn1nc(C(F)(F)F)c(CS(=O)(=O)c2ncc(Br)s2)c1OCC(F)F [1.026] | 60 | 70 | 70 | 0 | 60 | 90 | 95 | 0 |  |  |  |  | 
11 | COCCOc1c(CS(=O)(=O)c2ncc(Cl)s2)c(C(F)(F)F)nn1C [1.052] | 50 | 80 | 70 | 10 | 80 | 100 | 95 | 90 |  |  |  |  | 
12 | Cn1nc(C(F)(F)F)c(CS(=O)(=O)c2ncc(Cl)s2)c1OC(F)F [1.058] | 80 | 60 | 70 | 0 | 30 | 100 | 95 | 10 |  |  |  |  | 
13 | Cn1nc(OC(F)F)c(CS(=O)(=O)c2ncc(Cl)s2)c1C(F)(F)F [Compound 1.055] |  |  |  |  | 95 | 0 | 100 | 0 | 4 | 2 | 5 | 5 | 5
14 | Cn1nc(C(F)(F)F)c(CSc2ncc(Br)s2)c1OCC(F)(F)F [Compound No. 1.001, 5-bromo-2-[1-methyl-5-(2,2,2-trifluoroethoxy)-3-trifluoromethyl-1H-pyrazol-4-ylmethylsulfanyl]-thiazole] | 80 | 80 | 60 | 80 | 90 | 90 | 95 | 60 |  |  |  |  | 
15 | Cn1nc(C(F)(F)F)c(CS(=O)(=O)c2ncc(Br)s2)c1OCC(F)(F)F [Compound No. 1.003, 5-bromo-2-[1-methyl-5-(2,2,2-trifluoroethoxy)-3-trifluoromethyl-1H-pyrazol-4-ylmethanesulfonyl]-thiazole] |  | 80 | 90 | 10 | 95 | 95 | 95 | 70 |  |  |  |  | 
